Results: patent US10059688B2, “Protein tyrosine kinase modulators and methods of use” (BETTA PHARMACEUTICALS CO., LTD., priority 2013, dated 2018)

Experiments:
[1] = target: ALK (h) (Homo sapiens (Human), UniProt Q9UM73); assay: Kinase assay, single dose inhibition (Millipore, 33P-ATP filter binding); type: biochemical; details: 0.1 μM test compound, 10 μM ATP; remaining activity relative to DMSO control = 100%
Description: (§1) Assay conditions included 10 μM ATP and 100 nM test compounds.
(§2) All reactions are initiated by the addition of the MgATP mix. After incubation for 40 minutes at room temperature, the reaction is stopped by the addition of 3% phosphoric acid solution. 10 μL of the reaction is then spotted onto a P30 filtermat and washed three times for 5 minutes in 75 mM phosphoric acid and once in methanol prior to drying and scintillation counting. This assay is performed by Millipore. The experiment is carried out in duplicate. The value for the control sample (DMSO) was set to 100%, and the values for the compound-treated samples were expressed as activity relative to the control sample.

[2] = target: EGFR (T790M) (h) (Homo sapiens (Human), UniProt P00533, T790M); assay: as above; type: biochemical; details: 0.1 μM test compound, 10 μM ATP; remaining activity relative to DMSO control = 100%
Sequence of EGFR (T790M) (h) (P00533 25-1210 T790M): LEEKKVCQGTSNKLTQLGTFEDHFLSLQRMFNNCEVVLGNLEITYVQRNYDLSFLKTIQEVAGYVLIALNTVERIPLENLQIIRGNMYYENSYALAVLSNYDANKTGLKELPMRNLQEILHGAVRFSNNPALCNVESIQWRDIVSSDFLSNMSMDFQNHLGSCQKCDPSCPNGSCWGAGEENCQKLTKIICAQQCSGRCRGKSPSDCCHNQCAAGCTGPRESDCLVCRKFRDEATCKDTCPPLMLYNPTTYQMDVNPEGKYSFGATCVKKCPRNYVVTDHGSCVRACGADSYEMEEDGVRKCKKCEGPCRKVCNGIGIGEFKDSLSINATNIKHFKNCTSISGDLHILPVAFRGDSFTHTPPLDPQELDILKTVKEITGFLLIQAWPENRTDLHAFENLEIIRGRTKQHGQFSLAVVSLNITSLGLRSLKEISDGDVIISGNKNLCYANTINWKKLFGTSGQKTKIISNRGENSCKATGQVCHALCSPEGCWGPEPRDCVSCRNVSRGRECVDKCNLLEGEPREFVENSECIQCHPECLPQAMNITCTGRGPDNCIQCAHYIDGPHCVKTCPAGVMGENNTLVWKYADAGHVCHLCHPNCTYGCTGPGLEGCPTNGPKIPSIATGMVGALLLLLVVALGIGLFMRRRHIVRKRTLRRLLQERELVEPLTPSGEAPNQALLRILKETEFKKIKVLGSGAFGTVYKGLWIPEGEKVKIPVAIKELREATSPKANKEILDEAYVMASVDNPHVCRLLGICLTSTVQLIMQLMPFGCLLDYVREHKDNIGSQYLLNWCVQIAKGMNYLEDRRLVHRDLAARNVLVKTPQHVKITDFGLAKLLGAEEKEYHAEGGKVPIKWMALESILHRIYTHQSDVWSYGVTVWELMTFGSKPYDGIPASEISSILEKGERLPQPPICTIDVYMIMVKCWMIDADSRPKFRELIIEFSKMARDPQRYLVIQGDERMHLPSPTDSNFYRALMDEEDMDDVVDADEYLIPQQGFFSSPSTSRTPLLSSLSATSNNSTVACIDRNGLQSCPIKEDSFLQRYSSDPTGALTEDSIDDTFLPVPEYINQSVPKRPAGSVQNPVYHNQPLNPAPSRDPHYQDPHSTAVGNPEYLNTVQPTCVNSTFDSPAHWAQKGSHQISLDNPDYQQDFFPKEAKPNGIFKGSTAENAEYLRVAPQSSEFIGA

[3] = target: EGFR (T790M, L858R) (h) (Homo sapiens (Human), UniProt P00533, L858R/T790M); assay: as above; type: biochemical; details: 0.1 μM test compound, 10 μM ATP; remaining activity relative to DMSO control = 100%
Sequence of EGFR (T790M, L858R) (h) (P00533 25-1210 T790M/L858R): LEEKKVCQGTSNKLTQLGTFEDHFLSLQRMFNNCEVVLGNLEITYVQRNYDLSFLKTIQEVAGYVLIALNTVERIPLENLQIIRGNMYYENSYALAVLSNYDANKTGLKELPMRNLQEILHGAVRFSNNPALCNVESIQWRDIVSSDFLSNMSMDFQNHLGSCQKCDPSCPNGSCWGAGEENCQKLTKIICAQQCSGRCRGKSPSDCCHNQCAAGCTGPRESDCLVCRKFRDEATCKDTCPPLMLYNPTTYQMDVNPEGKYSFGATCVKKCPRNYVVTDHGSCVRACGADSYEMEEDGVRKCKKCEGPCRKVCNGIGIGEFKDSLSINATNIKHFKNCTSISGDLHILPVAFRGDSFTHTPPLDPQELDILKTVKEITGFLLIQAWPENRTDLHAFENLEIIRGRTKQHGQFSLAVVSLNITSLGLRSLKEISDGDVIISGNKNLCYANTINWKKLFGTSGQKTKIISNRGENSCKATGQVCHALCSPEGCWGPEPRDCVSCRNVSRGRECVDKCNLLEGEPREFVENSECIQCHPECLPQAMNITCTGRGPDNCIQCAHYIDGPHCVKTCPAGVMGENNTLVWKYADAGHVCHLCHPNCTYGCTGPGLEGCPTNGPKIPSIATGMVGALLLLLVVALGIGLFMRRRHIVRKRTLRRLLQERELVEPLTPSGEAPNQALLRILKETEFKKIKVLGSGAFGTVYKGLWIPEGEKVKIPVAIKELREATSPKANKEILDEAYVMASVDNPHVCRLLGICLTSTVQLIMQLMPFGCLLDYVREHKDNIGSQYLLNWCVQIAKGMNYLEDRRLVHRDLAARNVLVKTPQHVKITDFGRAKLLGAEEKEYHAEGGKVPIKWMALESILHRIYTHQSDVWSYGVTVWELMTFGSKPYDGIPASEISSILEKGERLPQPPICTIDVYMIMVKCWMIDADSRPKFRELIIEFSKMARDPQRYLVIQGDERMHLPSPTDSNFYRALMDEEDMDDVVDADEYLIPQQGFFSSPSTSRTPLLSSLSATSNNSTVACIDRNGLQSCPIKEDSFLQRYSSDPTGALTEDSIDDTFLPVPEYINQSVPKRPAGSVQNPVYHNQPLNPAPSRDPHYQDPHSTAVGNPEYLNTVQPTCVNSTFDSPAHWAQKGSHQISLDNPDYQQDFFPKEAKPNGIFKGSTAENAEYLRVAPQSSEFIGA
Description: as §1, §2

[4] = target: EGFR (L858R) (h) (Homo sapiens (Human), UniProt P00533, L858R); assay: as above; type: biochemical; details: 0.1 μM test compound, 10 μM ATP; remaining activity relative to DMSO control = 100%
Sequence of EGFR (L858R) (h) (P00533 25-1210 L858R): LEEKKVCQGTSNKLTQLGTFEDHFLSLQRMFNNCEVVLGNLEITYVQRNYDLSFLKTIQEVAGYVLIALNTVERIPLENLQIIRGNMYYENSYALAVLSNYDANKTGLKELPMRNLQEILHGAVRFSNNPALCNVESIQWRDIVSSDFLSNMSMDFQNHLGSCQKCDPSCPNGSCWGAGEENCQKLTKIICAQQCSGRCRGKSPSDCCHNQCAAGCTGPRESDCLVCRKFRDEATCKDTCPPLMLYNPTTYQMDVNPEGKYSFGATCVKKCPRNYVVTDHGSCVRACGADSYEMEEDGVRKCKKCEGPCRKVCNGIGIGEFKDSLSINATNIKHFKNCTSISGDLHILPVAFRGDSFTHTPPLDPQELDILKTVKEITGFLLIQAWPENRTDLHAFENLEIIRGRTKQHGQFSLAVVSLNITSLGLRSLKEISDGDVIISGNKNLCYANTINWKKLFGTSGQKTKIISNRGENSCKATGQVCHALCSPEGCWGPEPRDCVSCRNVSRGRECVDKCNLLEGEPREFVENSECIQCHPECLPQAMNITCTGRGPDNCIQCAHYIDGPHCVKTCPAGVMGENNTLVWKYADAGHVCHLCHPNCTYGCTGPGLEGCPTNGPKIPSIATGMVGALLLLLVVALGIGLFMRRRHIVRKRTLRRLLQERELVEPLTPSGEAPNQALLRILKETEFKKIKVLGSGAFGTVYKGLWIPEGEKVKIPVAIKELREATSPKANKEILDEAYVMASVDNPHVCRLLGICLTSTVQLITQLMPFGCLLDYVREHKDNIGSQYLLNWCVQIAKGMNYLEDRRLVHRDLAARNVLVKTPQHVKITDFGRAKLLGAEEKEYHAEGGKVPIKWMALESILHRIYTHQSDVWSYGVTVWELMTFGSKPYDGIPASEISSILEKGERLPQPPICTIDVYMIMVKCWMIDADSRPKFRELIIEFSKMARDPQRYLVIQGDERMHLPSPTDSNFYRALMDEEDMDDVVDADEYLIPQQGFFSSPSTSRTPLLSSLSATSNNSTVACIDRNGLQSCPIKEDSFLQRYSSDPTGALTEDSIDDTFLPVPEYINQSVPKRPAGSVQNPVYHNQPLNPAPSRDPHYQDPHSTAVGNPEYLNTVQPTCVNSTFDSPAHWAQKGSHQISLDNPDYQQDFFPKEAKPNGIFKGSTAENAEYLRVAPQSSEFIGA
Description: as §1, §2

[5] = target: EGFR (h) (Homo sapiens (Human), UniProt P00533); assay: as above; type: biochemical; details: 0.1 μM test compound, 10 μM ATP; remaining activity relative to DMSO control = 100%
Sequence of EGFR (h) (P00533 25-1210): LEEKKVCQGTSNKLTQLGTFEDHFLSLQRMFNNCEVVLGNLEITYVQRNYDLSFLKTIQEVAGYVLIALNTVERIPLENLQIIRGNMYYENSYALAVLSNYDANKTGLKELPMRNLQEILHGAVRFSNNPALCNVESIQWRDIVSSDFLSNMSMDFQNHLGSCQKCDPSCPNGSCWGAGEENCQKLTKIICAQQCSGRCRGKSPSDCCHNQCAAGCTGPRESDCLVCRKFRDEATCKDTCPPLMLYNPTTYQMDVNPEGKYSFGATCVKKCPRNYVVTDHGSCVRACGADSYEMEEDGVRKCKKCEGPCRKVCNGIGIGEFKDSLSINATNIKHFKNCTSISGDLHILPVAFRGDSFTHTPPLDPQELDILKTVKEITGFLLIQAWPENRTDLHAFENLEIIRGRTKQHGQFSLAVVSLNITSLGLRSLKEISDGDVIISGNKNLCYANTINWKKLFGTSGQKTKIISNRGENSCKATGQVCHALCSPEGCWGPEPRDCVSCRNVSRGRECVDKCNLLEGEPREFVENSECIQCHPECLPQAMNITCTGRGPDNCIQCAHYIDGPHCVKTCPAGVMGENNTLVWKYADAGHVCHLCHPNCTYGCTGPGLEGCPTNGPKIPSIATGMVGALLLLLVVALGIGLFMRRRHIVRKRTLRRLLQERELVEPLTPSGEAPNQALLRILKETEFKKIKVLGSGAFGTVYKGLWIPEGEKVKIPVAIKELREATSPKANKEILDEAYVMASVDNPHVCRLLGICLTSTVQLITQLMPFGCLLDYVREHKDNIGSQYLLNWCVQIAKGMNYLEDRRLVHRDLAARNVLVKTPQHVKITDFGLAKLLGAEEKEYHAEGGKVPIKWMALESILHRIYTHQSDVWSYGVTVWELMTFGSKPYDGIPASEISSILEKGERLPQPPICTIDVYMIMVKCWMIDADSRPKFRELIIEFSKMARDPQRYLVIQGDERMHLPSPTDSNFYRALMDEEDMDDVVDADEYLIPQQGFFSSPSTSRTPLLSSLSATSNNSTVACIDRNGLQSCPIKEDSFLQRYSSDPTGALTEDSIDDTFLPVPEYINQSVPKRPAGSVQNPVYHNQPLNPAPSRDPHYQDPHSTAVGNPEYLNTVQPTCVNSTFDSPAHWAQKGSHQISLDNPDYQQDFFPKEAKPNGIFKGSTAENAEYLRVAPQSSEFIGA
Description: as §1, §2

[6] = tested on: HCC827 (EGFR Del) NSCLC cells; assay: Cell proliferation assay (MTS cell viability); type: cell-based; details: Homo sapiens, 72 h; HCC827 cells, 3 days of exposure, MTS
[7] = tested on: H1975 (EGFR L858R/T790M) NSCLC cells; assay: Cell proliferation assay (MTS cell viability); type: cell-based; details: Homo sapiens, NCI-H1975, 72 h; H1975 cells, 3 days of exposure, MTS

Q: With “N-(5-(5-chloro-4-(2-(2-(dimethylamino)-2-oxoactyl)phenylamino)pyrimidin-2-ylamino)-2-(2-(dimethylamino)ethoxy)phenyl)acrylamide [Example 115]” as the molecule, how does the “Activity (control) % ALK (h)” value [1] read?
A: 6%

Q: For `COc1ccc(NC(=O)/C=C/CN2CCOCC2)cc1Nc1ncc(Cl)c(Nc2ccccc2C(=O)C(=O)N(C)C)n1` [Example 79, (E)-N-(3-(5-chloro-4-(2-(2-(dimethylamino)-2-oxoacetyl)phenylamino)pyrimidin-2-ylamino)-4-methoxyphenyl)-4-morpholinobut-2-enamide], which “Activity (control) % ALK (h)” value [1] is on record?
A: 7%

Q: What about the “Activity (control) % EGFR (T790M) (h)” value [2] of the same molecule?
A: 16%

Q: And the “Activity (control) % EGFR (T790M, L858R) (h)” value [3]?
A: 2%

Q: And the “Activity (control) % EGFR (L858R) (h)” value [4]?
A: 25%

Q: And the “Activity (control) % EGFR (h)” value [5]?
A: 92%

Q: Which “Activity (control) % ALK (h)” value [1] does the source give for `C=C(CN(C)C)C(=O)Nc1ccc(OC)c(Nc2ncc(Cl)c(Nc3ccccc3C(=O)C(=O)N(C)C)n2)c1` [Example 78, N-(3-(5-chloro-4-(2-(2-(dimethylamino)-2-oxoactyl)phenylamino)pyrimidin-2-ylamino)-4-methoxyphenyl)-2-((dimethylamino)methyl)acrylamide] here?
A: 36%

Q: What about the “Activity (control) % EGFR (T790M) (h)” value [2] of the same molecule?
A: 2%

Q: And the “Activity (control) % EGFR (T790M, L858R) (h)” value [3]?
A: 3%

Q: And the “Activity (control) % EGFR (L858R) (h)” value [4]?
A: 37%

Q: What about the “Activity (control) % EGFR (h)” value [5] of the same molecule?
A: 68%

Q: What does the source list for `C=CC(=O)N1CCC(NC(=O)C(=O)c2ccccc2Nc2nc(Nc3ccc(N4CCN(C)CC4)cc3OC)ncc2Cl)CC1` [Example 56, N-(1-acryloylpiperidin-4-yl)-2-(2-(5-chloro-2-(2-methoxy-4-(4-methylpiperazin-1-yl)phenylamino)pyrimidin-4-ylamino)phenyl)-2-oxoacetamide]?
A: IC50 [6]: > 3000 nM; IC50 [7]: > 3000 nM

Q: With `CCC(=O)Nc1cc(Nc2ncc(Cl)c(Nc3ccccc3C(=O)C(=O)N(C)C)n2)ccc1OCCN(C)C` [Example 120, N-(5-(5-chloro-4-(2-(2-(dimethylamino)-2-oxoactyl)phenylamino)pyrimidin-2-ylamino)-2-(2-(dimethylamino)ethoxy)phenyl)propionamide] as the molecule, how does the “Activity (control) % ALK (h)” value [1] read?
A: 8%

Q: What about the “Activity (control) % EGFR (T790M) (h)” value [2] of the same molecule?
A: 62%

Q: And the “Activity (control) % EGFR (T790M, L858R) (h)” value [3]?
A: 14%

Q: And the “Activity (control) % EGFR (L858R) (h)” value [4]?
A: 76%

Q: What about the “Activity (control) % EGFR (h)” value [5] of the same molecule?
A: 115%

Q: Which “Activity (control) % ALK (h)” value [1] does the source give for `C=C(CN1CCCC1)C(=O)Nc1ccc(OC)c(Nc2ncc(Cl)c(Nc3ccccc3C(=O)C(=O)N(C)C)n2)c1` [Example 97, N-(3-(5-chloro-4-(2-(2-(dimethylamino)-2-oxoactyl)phenylamino)pyrimidin-2-ylamino)-4-methoxyphenyl)-2-(pyrrolidin-1-ylmethyl)acrylamide] here?
A: 23%

Q: What about the “Activity (control) % EGFR (T790M) (h)” value [2] of the same molecule?
A: 2%

Q: What about the “Activity (control) % EGFR (T790M, L858R) (h)” value [3] of the same molecule?
A: 6%

Q: What about the “Activity (control) % EGFR (L858R) (h)” value [4] of the same molecule?
A: 46%

Q: And the “Activity (control) % EGFR (h)” value [5]?
A: 74%

Q: With `C=CC(=O)N1CCOc2ccc(Nc3ncc(Cl)c(Nc4ccccc4C(=O)C(=O)N(C)C)n3)cc21` [Example 87, 2-(2-(2-(4-acryloyl-3,4-dihydro-2H-benzo[b][1,4]oxazin-6-ylamino)-5-chloropyrimidin-4-ylamino)phenyl)-N,N-dimethyl-2-oxoacetamide] as the molecule, how does the “Activity (control) % ALK (h)” value [1] read?
A: 5%

Q: Which “Activity (control) % ALK (h)” value [1] does the source give for `C=CC(=O)Nc1cc(Nc2ncc(C)c(Nc3ccccc3C(=O)C(=O)N(C)C)n2)ccc1OC` [Example 101, N-(5-(4-(2-(2-(dimethylamino)-2-oxoacetyl)phenylamino)-5-methylpyrimidin-2-ylamino)-2-methoxyphenyl)acrylamide] here?
A: 35%

Q: And the “Activity (control) % EGFR (T790M) (h)” value [2]?
A: 83%

Q: And the “Activity (control) % EGFR (T790M, L858R) (h)” value [3]?
A: 41%

Q: And the “Activity (control) % EGFR (L858R) (h)” value [4]?
A: 94%

Q: And the “Activity (control) % EGFR (h)” value [5]?
A: 110%

Q: How did the “Activity (control) % ALK (h)” value [1] turn out when `COc1ccc(NC(=O)/C=C/CN2CCCCC2)cc1Nc1ncc(Cl)c(Nc2ccccc2C(=O)C(=O)N(C)C)n1` [Example 72, (E)-N-(3-(5-chloro-4-(2-(2-(dimethylamino)-2-oxoacetyl)phenylamino)pyrimidin-2-ylamino)-4-methoxyphenyl)-4-(piperidin-1-yl)but-2-enamide] was run?
A: 14%

Q: And the “Activity (control) % EGFR (T790M) (h)” value [2]?
A: 54%

Q: And the “Activity (control) % EGFR (T790M, L858R) (h)” value [3]?
A: 9%

Q: What about the “Activity (control) % EGFR (L858R) (h)” value [4] of the same molecule?
A: 28%

Q: What about the “Activity (control) % EGFR (h)” value [5] of the same molecule?
A: 102%

Q: Which results are given for `CCC(=O)N1CCN(c2ccc(Nc3ncc(Cl)c(Nc4ccccc4C(=O)C(=O)NC)n3)c(OC)c2)CC1` [Example 54, 2-(2-(5-chloro-2-(2-methoxy-4-(4-propionylpiperazin-1-yl)phenylamino)pyrimidin-4-ylamino)phenyl)-N-methyl-2-oxoacetamide]?
A: IC50 [6]: > 3000 nM; IC50 [7]: > 3000 nM

Q: With `COc1cc(N2CCOCC2)ccc1Nc1ncc(Cl)c(Nc2ccccc2C(=O)C(=O)N(C)C)n1` [Example 48, 2-(2-(5-chloro-2-(2-methoxy-4-morpholinophenylamino)pyrimidin-4-ylamino)phenyl)-N,N-dimethyl-2-oxoacetamide] as the molecule, how does the IC50 [6] read?
A: 1940 nM

Q: And the IC50 [7]?
A: 1950 nM

Q: How did the “Activity (control) % ALK (h)” value [1] turn out when `C=C(CN(C)CCN(C)C)C(=O)Nc1cccc(Nc2ncc(Cl)c(Nc3ccccc3C(=O)C(=O)N(C)C)n2)c1` [Example 125, N-(3-(5-chloro-4-(2-(2-(dimethylamino)-2-oxoacetyl)phenylamino)pyrimidin-2-ylamino)phenyl)-2-(((2-(dimethylamino)ethyl)(methyl)amino)methyl)acrylamide] was run?
A: 20%

Q: And the “Activity (control) % EGFR (T790M) (h)” value [2]?
A: 18%

Q: What about the “Activity (control) % EGFR (T790M, L858R) (h)” value [3] of the same molecule?
A: 2%

Q: What about the “Activity (control) % EGFR (L858R) (h)” value [4] of the same molecule?
A: 54%

Q: And the “Activity (control) % EGFR (h)” value [5]?
A: 106%

Q: For `C=CC(=O)Nc1cccc(Nc2nc(Nc3ccc(N4CCN(C(C)=O)CC4)cc3OC)ncc2C(F)(F)F)c1` [CO-1686, reference compound], which “Activity (control) % EGFR (T790M) (h)” value [2] is on record?
A: 21%

Q: And the “Activity (control) % EGFR (T790M, L858R) (h)” value [3]?
A: 7%

Q: And the “Activity (control) % EGFR (L858R) (h)” value [4]?
A: 97%

Q: And the “Activity (control) % EGFR (h)” value [5]?
A: 92%

Q: With `COc1cc(N2CCC(N(C)C)CC2)ccc1Nc1ncc(C(F)(F)F)c(Nc2ccccc2C(=O)C(=O)O)n1` [Example 15, 2-(2-((2-((4-(4-(dimethylamino)piperidin-1-yl)-2-methoxyphenyl)amino)-5-(trifluoromethyl)pyrimidin-4-yl)amino)phenyl)-2-oxoacetic acid] as the molecule, how does the IC50 [6] read?
A: > 3000 nM

Q: What about the IC50 [7] of the same molecule?
A: > 3000 nM

Q: For `CCOC(=O)C(=O)c1ccccc1Nc1nc(Nc2ccc(N3CCC(N(C)C)CC3)cc2OC)ncc1Cl` [Example 1, ethyl 2-(2-(5-chloro-2-(4-(4-(dimethylamino)piperidin-1-yl)-2-methoxyphenylamino)pyrimidin-4-ylamino)phenyl)-2-oxoacetate], which IC50 [6] is on record?
A: > 3000 nM

Q: And the IC50 [7]?
A: > 3000 nM

Q: Which IC50 [6] does the source give for `COc1cc(N2CCC(N(C)C)CC2)ccc1Nc1ncc(Cl)c(Nc2ccccc2C(=O)C(=O)NC2CNC2)n1` [Example 24, N-(azetidin-3-yl)-2-(2-((5-chloro-2-((4-(4-(dimethylamino)piperidin-1-yl)-2-methoxyphenyl)amino)pyrimidin-4-yl)amino)phenyl)-2-oxoacetamide] here?
A: > 3000 nM

Q: And the IC50 [7]?
A: > 3000 nM

Q: For `COc1cc(N2CCN(C)CC2)ccc1Nc1ncc(Cl)c(Nc2ccccc2C(=O)C(=O)NC2CC2)n1` [Example 49, 2-(2-(5-chloro-2-(2-methoxy-4-(4-methylpiperazin-1-yl)phenylamino)pyrimidin-4-ylamino)phenyl)-N-cyclopropyl-2-oxoacetamide], which IC50 [6] is on record?
A: > 3000 nM

Q: What about the IC50 [7] of the same molecule?
A: > 3000 nM

Q: For `COc1cc(N2CCC(N(C)C)CC2)ccc1Nc1ncc(Cl)c(Nc2ccccc2C(=O)C(=O)N2CCOCC2)n1` [Example 18, 1-(2-((5-chloro-2-((4-(4-(dimethylamino)piperidin-1-yl)-2-methoxyphenyl)amino)pyrimidin-4-yl)amino)phenyl)-2-morpholinoethane-1,2-dione], which IC50 [6] is on record?
A: > 3000 nM

Q: What about the IC50 [7] of the same molecule?
A: 2860 nM

Q: Which IC50 [6] does the source give for `C=CC(=O)N1CC(NC(=O)C(=O)c2ccccc2Nc2nc(Nc3ccc(N4CCN(C)CC4)cc3OC)ncc2Cl)C1` [Example 55, N-(1-acryloylazetidin-3-yl)-2-(2-(5-chloro-2-(2-methoxy-4-(4-methylpiperazin-1-yl)phenylamino)pyrimidin-4-ylamino)phenyl)-2-oxoacetamide] here?
A: > 3000 nM

Q: And the IC50 [7]?
A: > 3000 nM

Q: Which results are given for `COc1cc(N2CCN(C)CC2)ccc1Nc1ncc(C(F)(F)F)c(Nc2ccccc2C(=O)C(N)=O)n1` [Example 10, 2-(2-((2-((2-methoxy-4-(4-methylpiperazin-1-yl)phenyl)amino)-5-(trifluoromethyl)pyrimidin-4-yl)amino)phenyl)-2-oxoacetamide]?
A: IC50 [6]: > 3000 nM; IC50 [7]: > 3000 nM

Q: What does the source list for `COc1cc(N2CCC(N(C)C)CC2)ccc1Nc1ncc(Cl)c(Nc2ccccc2C(=O)C(=O)O)n1` [Example 2, 2-(2-(5-chloro-2-(4-(4-(dimethylamino)piperidin-1-yl)-2-methoxyphenylamino)pyrimidin-4-ylamino)phenyl)-2-oxoacetic acid]?
A: IC50 [6]: > 3000 nM; IC50 [7]: > 3000 nM

Q: `COc1ccc(NC(=O)C=C(C)C)cc1Nc1ncc(Cl)c(Nc2ccccc2C(=O)C(=O)N(C)C)n1` [Example 71, N-(3-(5-chloro-4-(2-(2-(dimethylamino)-2-oxoacetyl)phenylamino)pyrimidin-2-ylamino)-4-methoxyphenyl)-3-methylbut-2-enamide] was tested. Which IC50 [7] did it give?
A: 990 nM

Q: Which results are given for `COc1cc(N2CCC(N(C)C)CC2)ccc1Nc1ncc(Cl)c(Nc2ccccc2C(=O)C(=O)NC2CC2)n1` [Example 25, 2-(2-((5-chloro-2-((4-(4-(dimethylamino)piperidin-1-yl)-2-methoxyphenyl)amino)pyrimidin-4-yl)amino)phenyl)-N-cyclopropyl-2-oxoacetamide]?
A: IC50 [6]: > 3000 nM; IC50 [7]: > 3000 nM
